Experimental data from patent US6413530B1, “Pesticidal peptides” (priority 1999, dated 2002).
Read-outs that look alike come from different tables or passages of the source. Where a SMILES comes first, the peptide text is derived from it. Where no end group is shown, it is not given here. [ ]: non-standard residue; d: D form.

Assays:
mosquito larvae = type: in vivo; conditions: newly hatched larvae on autoclaved yeast 1 mg/ml plus peptide, microtiter plates, 7 days
Protocol: Preferably, the subject peptides have an LD50 against mosquito larvae of less than 3.0 μmole/ml. More preferably, the peptides have an LD50 of less than […], and, most preferably, the peptides have an LD50 of less than 1.0 μmole/ml. As used herein, “LD50” refers to a lethal dose of a peptide able to cause 50% mortality of larvae maintained on a diet of 1 mg/ml autoclaved yeast supplemented with the pesticidal polypeptide. (Borovsky, Dov, and Farida Mahmood [1995] Regulatory Peptides 57:273-281).
TMOF can traverse the gut epithelium, enter the hemolymph and bind a gut receptor (Borovsky, D. and F. Mahmood (1995) “Feeding the mosquito Aedes aegypti with TMOF and its analogs; effect on trypsin biosynthesis and egg development,” Regulatory Peptides 57:273-281.; Borovsky et al. (1994) “Characterization and localization of mosquito-gut receptors for trypsin modulating oostatic factor using complementary peptide immunochemistry” FASEB J. 8:350-355.). This characteristic permits the testing of TMOF and its analogues by feeding them to mosquito and other pest larvae. To find out if truncated TMOF peptides have an effect on larval growth and development, a series of peptides were synthesized and tested by feeding them to mosquito larvae at concentrations of 0 to 5.0 mg/ml (Table 2). Individual, newly hatched Aedes aegypti larvae were maintained in separate microtiter plate wells on a diet of autoclaved yeast (1 mg/ml). The diet was supplemented with TMOF peptides (Table 2). An identical number of larvae maintained on yeast served as a control. […] All control groups survived and larval growth and development was normal. Since larvae swallow only a small portion of the yeast particles adsorbed the peptides, it is assumed that approximately 1 to 20 ng are taken orally at the high concentrations.

[1] = test system: fourth instar H. virescens; assay: Feeding TMOF analogues to fourth instar H. virescens: larval weight; type: in vivo, Heliothis virescens; conditions: for reduction in larval weight: fourth instar larvae fed analogue peptides for 5 days; for Weight Gain / Weight mg ± S.E.M. End: fourth instar larvae; for Weight Gain: 0.8 μg analog for 5 days; for Weight mg ± S.E.M. End: synthetic food and 0.8 μg analog for 5 days
Protocol: (§1) Individual first instar and fourth instar larvae of H. virescens were maintained in separate plastic cups and were fed on artificial diet blocks on which different concentrations of TMOF (0 to 1.6 mg) were adsorbed. Larvae were fed for 5 to 14 days and larval weight and trypsin activity were measured at the end of the experimental periods. […] When first instar larvae were fed for 14 days, an 18% and 26% reduction in weight was observed when analogues 15 and 14 were used (Table 4).

trypsin biosynthesis = assay: Trypsin biosynthesis in guts of fourth instar H. virescens fed TMOF analogues ([3H]DFP); type: in vivo, Heliothis virescens; conditions: for reduction in trypsin biosynthesis: fourth instar larvae fed analogue peptides for 5 days; for Trypsin μg ± S.E.M.: guts removed after 5 days feeding 0.8 μg analog, incubated with [3H]DFP; for Inhibition (% ± S.E.M.) of trypsin: versus control, after 5 days feeding 0.8 μg analog
Protocol: as §1

[2] = test system: First instar larvae of H. virescens; assay: Feeding of first instar H. virescens on TMOF analogs for 14 days; type: in vivo, Heliothis virescens; conditions: for reduction in weight: first instar larvae fed for 14 days; for Number of Dead Larvae / Weight (mg) ± S.E.M. / Weight Reduction (%) ± S.E.M.: first instar larvae, 1.6 μg analog, 14 days; for Weight Reduction (%) ± S.E.M.: versus control
Protocol: as §1

## YDPLP [Compound 6, YDPLP]
Mosquito larvae; left half of Table 2
  LD50 ± S.E.M.: 1.5 ± 0.04 mM

## FSP [Compound 35]
Mosquito larvae; right half of Table 2
  LD50 ± S.E.M.: 2.3 ± 0.13 Mm

## YDLAP [Compound 13, YDLAP]
Mosquito larvae; left half of Table 2
  LD50 ± S.E.M.: 0.6 ± 0.05 mM

## YDA [Compound 32]
Mosquito larvae; right half of Table 2
  LD50 ± S.E.M.: 1.6 ± 0.13 Mm

## PAP [Compound 38]
Mosquito larvae; right half of Table 2
  LD50 ± S.E.M.: 3.17 ± 0.14 Mm

## YFPAP [Compound 11, YFPAP]
Mosquito larvae; left half of Table 2
  LD50 ± S.E.M.: 0.64 ± 0.03 mM

## DPA [Compound 23]
Mosquito larvae; right half of Table 2
  LD50 ± S.E.M.: 0.4 ± 0.03 Mm

## YDPAPPPPPP [Compound 1, YDPAP6, reference compound]
Mosquito larvae; left half of Table 2
  LD50 ± S.E.M.: 0.2 ± 0.02 mM

## AAP [Compound 29]
Mosquito larvae; right half of Table 2
  LD50 ± S.E.M.: 1.08 ± 0.07 Mm

## YAPAP [Compound 8, YAPAP]
Mosquito larvae; left half of Table 2
  LD50 ± S.E.M.: 0.54 ± 0.13 mM

## FDPAP [Compound 5, FDPAP]
Mosquito larvae; left half of Table 2
  LD50 ± S.E.M.: 0.37 ± 0.15 mM

## PAA [Compound 37]
Mosquito larvae; right half of Table 2
  LD50 ± S.E.M.: 2.4 ± 0.34 Mm

## YDAAP [Compound 15, YDAAP]
Mosquito larvae; left half of Table 2
  LD50 ± S.E.M.: 1.0 ± 0.18 mM
[1]
  reduction in larval weight: reduction
  Weight Gain: 179 mg
  Weight mg ± S.E.M. End: 217 ± 9.5 mg
Trypsin biosynthesis
  reduction in trypsin biosynthesis: reduction
  Trypsin μg ± S.E.M.: 2.1 ± 0.2 µg
  Inhibition (% ± S.E.M.) of trypsin: 17 ± 1.6%
[2]
  reduction in weight: 18%
  Number of Dead Larvae: 0
  Weight (mg) ± S.E.M.: 133 ± 7 mg
  Weight Reduction (%) ± S.E.M.: 18 ± 1%

## YDPAA [Compound 19, YDPAA]
Mosquito larvae; left half of Table 2
  LD50 ± S.E.M.: 1.6 ± 0.13 mM

## YNPAP [Compound 9, YNPAP]
Mosquito larvae; left half of Table 2
  LD50 ± S.E.M.: 0.55 ± 0.03 mM

## DYP [Compound 31]
Mosquito larvae; right half of Table 2
  LD50 ± S.E.M.: 1.27 ± 0.17 Mm
[1]
  Weight Gain: 180.5 mg
  Weight mg ± S.E.M. End: 216.7 ± 13 mg
Trypsin biosynthesis
  Trypsin μg ± S.E.M.: 2.2 ± 0.3 µg
  Inhibition (% ± S.E.M.) of trypsin: 14 ± 1.8%
[2]
  Number of Dead Larvae: 1
  Weight (mg) ± S.E.M.: 149 ± 9 mg
  Weight Reduction (%) ± S.E.M.: 9 ± 0.5%

## FDP [Compound 33]
Mosquito larvae; right half of Table 2
  LD50 ± S.E.M.: 1.98 ± 0.6 Mm

## N[C@@H](Cc1ccc(O)cc1)C(=O)N[C@H](CC(=O)O)C(=O)N1CCC[C@H]1C(=O)O [Compound 22, Y(D)DP] (H-Tyr-[dD]-Pro-OH; N-terminus and C-terminus assumed)
Mosquito larvae; left half of Table 2
  LD50 ± S.E.M.: 0.28 ± 0.01 mM

## YDF [Compound 27]
Mosquito larvae; right half of Table 2
  LD50 ± S.E.M.: 0.97 ± 0.11 Mm

## YSF [Compound 30]
Mosquito larvae; right half of Table 2
  LD50 ± S.E.M.: 1.08 ± 0.12 Mm

## APA [Compound 28]
Mosquito larvae; right half of Table 2
  LD50 ± S.E.M.: 1.0 ± 0.07 Mm

## MPDYPPPPP [Compound 2, MPDYP5]
Mosquito larvae; left half of Table 2
  LD50 ± S.E.M.: >3.0 mM

## YDPGP [Compound 16, YDPGP]
Mosquito larvae; left half of Table 2
  LD50 ± S.E.M.: 1.1 ± 0.18 mM
[1]
  Weight Gain: 163.1 mg
  Weight mg ± S.E.M. End: 199.8 ± 11 mg
Trypsin biosynthesis
  Trypsin μg ± S.E.M.: 2.1 ± 0.1 µg
  Inhibition (% ± S.E.M.) of trypsin: 17 ± 1%
[2]
  Number of Dead Larvae: 2
  Weight (mg) ± S.E.M.: 153 ± 10 mg
  Weight Reduction (%) ± S.E.M.: 6 ± 0.4%

## YAP [Compound 36]
Mosquito larvae; right half of Table 2
  LD50 ± S.E.M.: 2.3 ± 0.5 Mm

## ADPAP [Compound 21, ADPAP]
Mosquito larvae; left half of Table 2
  LD50 ± S.E.M.: 2.0 ± 0.36 mM
[1]
  Weight Gain: 174.1 mg
  Weight mg ± S.E.M. End: 209.7 ± 12 mg
Trypsin biosynthesis
  Trypsin μg ± S.E.M.: 2.4 ± 0.3 µg
  Inhibition (% ± S.E.M.) of trypsin: 5 ± 0.6%
[2]
  Number of Dead Larvae: 0
  Weight (mg) ± S.E.M.: 141 ± 9 mg
  Weight Reduction (%) ± S.E.M.: 7 ± 0.4%

## FAP [Compound 39]
Mosquito larvae; right half of Table 2
  LD50 ± S.E.M.: 3.8 ± 0.23 Mm

## DAA [Compound 25]
Mosquito larvae; right half of Table 2
  LD50 ± S.E.M.: 0.91 ± 0.06 Mm

## C[C@H](NC(=O)[C@@H]1CCCN1C(=O)[C@@H](CC(=O)O)NC(=O)[C@@H](N)Cc1ccc(O)cc1)C(=O)N1CCC[C@H]1C(=O)O [Compound 17, Y(D)DPAP] (H-Y[dD]PAP-OH; N-terminus and C-terminus assumed)
[1]
  Weight Gain: 153 mg
  Weight mg ± S.E.M. End: 188 ± 12 mg
Trypsin biosynthesis
  Trypsin μg ± S.E.M.: 2.1 ± 0.2 µg
  Inhibition (% ± S.E.M.) of trypsin: 15 ± 1.3%
[2]
  Number of Dead Larvae: 1
  Weight (mg) ± S.E.M.: 152 ± 27 mg
  Weight Reduction (%) ± S.E.M.: 7 ± 1%

## YDFAP [Compound 14, YDFAP]
Mosquito larvae; left half of Table 2
  LD50 ± S.E.M.: 0.74 ± 0.13 mM
[1]
  reduction in larval weight: reduction
  Weight Gain: 164 mg
  Weight mg ± S.E.M. End: 201 ± 12 mg
Trypsin biosynthesis
  reduction in trypsin biosynthesis: reduction
  Trypsin μg ± S.E.M.: 2.1 ± 0.2 µg
  Inhibition (% ± S.E.M.) of trypsin: 19 ± 1.5%
[2]
  reduction in weight: 26%
  Number of Dead Larvae: 1
  Weight (mg) ± S.E.M.: 121 ± 7 mg
  Weight Reduction (%) ± S.E.M.: 26 ± 1.5%

## (D)YDP [Compound 24]
Mosquito larvae; right half of Table 2
  LD50 ± S.E.M.: 0.51 ± 0.05 Mm

## YDPFP [Compound 20, YDPFP]
Mosquito larvae; left half of Table 2
  LD50 ± S.E.M.: 1.7 ± 0.4 mM

## YEPAP [Compound 4, YEPAP]
Mosquito larvae; left half of Table 2
  LD50 ± S.E.M.: 0.35 ± 0.02 mM

## YDPAF [Compound 3, YDPAF]
Mosquito larvae; left half of Table 2
  LD50 ± S.E.M.: 0.33 ± 0.2 mM

## ADP [Compound 40]
Mosquito larvae; right half of Table 2
  LD50 ± S.E.M.: >6.6 Mm

## YSPAP [Compound 18, YSPAP]
Mosquito larvae; left half of Table 2
  LD50 ± S.E.M.: 1.4 ± 0.03 mM
[1]
  reduction in larval weight: reduction
  Weight Gain: 151 mg
  Weight mg ± S.E.M. End: 188 ± 10.6 mg
Trypsin biosynthesis
  reduction in trypsin biosynthesis: reduction
  Trypsin μg ± S.E.M.: 2.0 ± 0.2 µg
  Inhibition (% ± S.E.M.) of trypsin: 19 ± 2%
[2]
  Number of Dead Larvae: 0
  Weight (mg) ± S.E.M.: 168 ± 11 mg
  Weight Reduction (%) ± S.E.M.: 0%

## YDG [Compound 26]
Mosquito larvae; right half of Table 2
  LD50 ± S.E.M.: 0.95 ± 0.11 Mm

## YDPAP [Compound 12, YDPAP, reference compound]
Mosquito larvae; left half of Table 2
  LD50 ± S.E.M.: 1.64 ± 0.03 mM

## YDPAL [Compound 7, YDPAL]
Mosquito larvae; left half of Table 2
  LD50 ± S.E.M.: 0.52 ± 0.03 mM

## YDP [Compound 34]
Mosquito larvae; right half of Table 2
  LD50 ± S.E.M.: 2.3 ± 0.4 Mm
[1]
  Weight Gain: 186.3 mg
  Weight mg ± S.E.M. End: 223.4 ± 16 mg
Trypsin biosynthesis
  Trypsin μg ± S.E.M.: 2.1 ± 0.3 µg
  Inhibition (% ± S.E.M.) of trypsin: 19 ± 3.2%
[2]
  Number of Dead Larvae: 0
  Weight (mg) ± S.E.M.: 157 ± 10 mg
  Weight Reduction (%) ± S.E.M.: 4 ± 0.2%
